Test results from ChEMBL document CHEMBL4152218, “Novel hydrazide-hydrazone and amide substituted coumarin derivatives: Synthesis, cytotoxicity screening, microarray, radiolabeling and in vivo pharmacokinetic studies” (Eur J Med Chem, 2018).
The source made the active and inactive calls. The calls are words filed in the database; no cut-off is given here.

Key:
HepG2 [1] = experiment: Antiproliferative activity against human HepG2 cells after 48 hrs by resazurin dye-based fluorescence assay; format: functional, cell-based; conditions: HepG2, 48 h
[2] = Selectivity index, ratio of IC50 for hTERT-BJ cells to IC50 for human HepG2 cells; format: toxicity; conditions: hTERT-BJ cells versus HepG2 cells, read-out: Ratio IC50
HepG2 [3] = experiment: Induction of apoptosis in human HepG2 cells assessed as increase in caspase-3/7 activity after 24 hrs by Caspase-Glo 3/7 luminescence assay; format: functional, cell-based
TERT-RPE1 = experiment: Cytotoxicity against hTERT-RPE1 cells after 48 hrs by resazurin dye-based fluorescence assay; format: cell-based; conditions: Homo sapiens, RPE-1, 48 h
HepG2 [4] = experiment: Effect on CASP2 gene expression in human HepG2 cells at IC50 after 48 hrs by microarray analysis; format: functional, cell-based
HepG2 [5] = experiment: Effect on GST A1 gene expression in human HepG2 cells at IC50 after 48 hrs by microarray analysis; format: functional, cell-based
HepG2 [6] = experiment: Effect on TOP3A gene expression in human HepG2 cells at IC50 after 48 hrs by microarray analysis; format: functional, cell-based
HepG2 [7] = experiment: Effect on WDR26 gene expression in human HepG2 cells at IC50 after 48 hrs by microarray analysis; format: functional, cell-based
HepG2 [8] = experiment: Effect on WNT2B gene expression in human HepG2 cells at IC50 after 48 hrs by microarray analysis; format: functional, cell-based
PANC-1 [9] = experiment: Effect on CASP1 gene expression in human PANC1 cells at IC50 after 48 hrs by microarray analysis; format: functional, cell-based
PANC-1 [10] = experiment: Effect on EIF5 gene expression in human PANC1 cells at IC50 after 48 hrs by microarray analysis; format: functional, cell-based
PANC-1 [11] = experiment: Effect on FEZ1 gene expression in human PANC1 cells at IC50 after 48 hrs by microarray analysis; format: functional, cell-based
PANC-1 [12] = experiment: Effect on NUCKS1 gene expression in human PANC1 cells at IC50 after 48 hrs by microarray analysis; format: functional, cell-based
PANC-1 [13] = experiment: Effect on SDR16C5 gene expression in human PANC1 cells at IC50 after 48 hrs by microarray analysis; format: functional, cell-based
HepG2 [14] = experiment: Effect on CASP7 gene expression in human HepG2 cells at IC50 by SYBR green-dye based qRT-PCR analysis relative to beta-actin; format: functional
hTERT-BJ [15] = experiment: Cytotoxicity against hTERT-BJ cells at 6.25 uM after 48 hrs by resazurin dye-based fluorescence assay relative to control; format: cell-based; conditions: human
hTERT-BJ [16] = experiment: Cytotoxicity against hTERT-BJ cells at 50 uM after 48 hrs by resazurin dye-based fluorescence assay relative to control; format: cell-based; conditions: human

Q: With `O=C(N/N=C/c1cc2ccccc2nc1Cl)c1cc2cc(Br)ccc2oc1=O` as the compound, how does the IC50 (HepG2 [1]) read?
A: The IC50 was 9.42 µM.

Q: What about the selectivity ratio [2] of the same compound?
A: Its selectivity ratio is over 5.31.

Q: What about the Activity (HepG2 [3]) of the same compound?
A: The Activity was “Dose-dependent effect”.

Q: And the IC50 (TERT-RPE1)?
A: The IC50 was over 50 µM.

Q: What about the Activity (HepG2 [4]) of the same compound?
A: The Activity was “Active”.

Q: What about the Activity (HepG2 [5]) of the same compound?
A: Its Activity is “Active”.

Q: And the Activity (HepG2 [6])?
A: The Activity was “Active”.

Q: And the Activity (HepG2 [7])?
A: Its Activity is “Active”.

Q: What about the Activity (HepG2 [8]) of the same compound?
A: Its Activity is “Active”.

Q: And the Activity (PANC-1 [9])?
A: Its Activity is “Active”.

Q: What about the Activity (PANC-1 [10]) of the same compound?
A: The Activity was “Active”.

Q: What about the Activity (PANC-1 [11]) of the same compound?
A: Its Activity is “Active”.

Q: What about the Activity (PANC-1 [12]) of the same compound?
A: Its Activity is “Active”.

Q: And the Activity (PANC-1 [13])?
A: Its Activity is “Active”.

Q: What about the “fold change (FC)” value (HepG2 [14]) of the same compound?
A: Its value is 2.45.

Q: And the Activity (hTERT-BJ [15])?
A: The Activity was 1.98%.

Q: And the Activity (hTERT-BJ [16])?
A: The Activity was 5.18%.
